Species: Rattus norvegicus
Assay: DrugMatrix - Regimen: Daily Repeat
Type: toxicity, organism-based, Sprague-Dawley
Design: regimen Daily Repeat, gender Male, age 6-8 weeks
Settings: in vivo, po, route oral GAVAGE; for ABSOLUTE BASOPHIL / ABSOLUTE EOSINOPHIL / ABSOLUTE LYMPHOCYTE / ABSOLUTE MONOCYTE / ABSOLUTE SEGMENTED NEUTROPHIL / BASOPHIL / EOSINOPHIL / ERYTHROCYTE COUNT / HEMATOCRIT / HEMOGLOBIN / LEUKOCYTE COUNT / LYMPHOCYTE / MEAN CORPUSCULAR HEMOGLOBIN / MEAN CORPUSCULAR HEMOGLOBIN CONCENTRATION / MEAN CORPUSCULAR VOLUME / MONOCYTE / NEUTROPHIL / NUCLEATED RED BLOOD CELLS / PLATELET COUNT: tissue Blood; for ALANINE AMINOTRANSFERASE / ALBUMIN / ALKALINE PHOSPHATASE / ASPARTATE AMINOTRANSFERASE / BLOOD UREA NITROGEN / CARBON DIOXIDE / CHLORIDE / CHOLESTEROL / CREATINE PHOSPHOKINASE / CREATININE / GLUCOSE / LACTATE DEHYDROGENASE / LIPASE / PHOSPHORUS / POTASSIUM / SODIUM / TOTAL BILIRUBIN / TOTAL PROTEIN / URIC ACID: tissue Plasma
[1] = 400 mg/kg, 72 h, dose level High, time 3 day, […]
[2] = 400 mg/kg, 120 h, dose level High, time 5 day, […]
[3] = 30 mg/kg, 72 h, dose level Low, time 3 day, vehicle .5 % CMC
[4] = 30 mg/kg, 120 h, dose level Low, time 5 day, vehicle .5 % CMC

## COC(=O)[C@H](c1ccccc1Cl)N1CCc2sccc2C1 [CLOPIDOGREL]
[1]
  ABSOLUTE BASOPHIL: 0 CELLS/uL
  ABSOLUTE EOSINOPHIL: 86.67 CELLS/uL
  ABSOLUTE LYMPHOCYTE: 12550.67 CELLS/uL
  ABSOLUTE MONOCYTE: 229.67 CELLS/uL
  ABSOLUTE SEGMENTED NEUTROPHIL: 1366.33 CELLS/uL
  BASOPHIL: 0%
  EOSINOPHIL: 0.67%
  ERYTHROCYTE COUNT: 5.22 x10E6/uL
  HEMATOCRIT: 31.7%
  HEMOGLOBIN: 12.8 G/DL
  LEUKOCYTE COUNT: 14.23 x10E3/uL
  LYMPHOCYTE: 88%
  MEAN CORPUSCULAR HEMOGLOBIN: 24.5 pg
  MEAN CORPUSCULAR HEMOGLOBIN CONCENTRATION: 40.4 G/DL
  MEAN CORPUSCULAR VOLUME: 60.77 fL
  MONOCYTE: 1.67%
  NEUTROPHIL: 9.67%
  NUCLEATED RED BLOOD CELLS: 0 /100WBC
  PLATELET COUNT: 1169.33 x10E3/uL
  ALANINE AMINOTRANSFERASE: 98.67 u/L
  ALBUMIN: 3.97 G/DL
  ALKALINE PHOSPHATASE: 463 u/L
  ASPARTATE AMINOTRANSFERASE: 113 u/L
  BLOOD UREA NITROGEN: 13.67 mg/dL
  CARBON DIOXIDE: 27.67 mmol/L
  CHLORIDE: 102.67 MEQ/L
  CHOLESTEROL: 80 mg/dL
  CREATINE PHOSPHOKINASE: 460.67 u/L
  CREATININE: 0.21 mg/dL
  GLUCOSE: 145 mg/dL
  LACTATE DEHYDROGENASE: 361 u/L
  LIPASE: 14.33 u/L
  PHOSPHORUS: 10.53 mg/dL
  POTASSIUM: 6.16 MEQ/L
  SODIUM: 141.23 MEQ/L
  TOTAL BILIRUBIN: 0.23 mg/dL
  TOTAL PROTEIN: 5.47 G/DL
  URIC ACID: 1.13 mg/dL
[2]
  ABSOLUTE BASOPHIL: 0 CELLS/uL
  ABSOLUTE EOSINOPHIL: 131.33 CELLS/uL
  ABSOLUTE LYMPHOCYTE: 15650.33 CELLS/uL
  ABSOLUTE MONOCYTE: 297.33 CELLS/uL
  ABSOLUTE SEGMENTED NEUTROPHIL: 2887.67 CELLS/uL
  BASOPHIL: 0%
  EOSINOPHIL: 0.67%
  ERYTHROCYTE COUNT: 5.21 x10E6/uL
  HEMATOCRIT: 31.5%
  HEMOGLOBIN: 12.6 G/DL
  LEUKOCYTE COUNT: 18.97 x10E3/uL
  LYMPHOCYTE: 84%
  MEAN CORPUSCULAR HEMOGLOBIN: 24.17 pg
  MEAN CORPUSCULAR HEMOGLOBIN CONCENTRATION: 40 G/DL
  MEAN CORPUSCULAR VOLUME: 60.37 fL
  MONOCYTE: 1.67%
  NEUTROPHIL: 13.67%
  NUCLEATED RED BLOOD CELLS: 0 /100WBC
  PLATELET COUNT: 1167.67 x10E3/uL
  ALANINE AMINOTRANSFERASE: 76 u/L
  ALBUMIN: 3.8 G/DL
  ALKALINE PHOSPHATASE: 362.67 u/L
  ASPARTATE AMINOTRANSFERASE: 110.67 u/L
  BLOOD UREA NITROGEN: 16.33 mg/dL
  CARBON DIOXIDE: 26 mmol/L
  CHLORIDE: 101 MEQ/L
  CHOLESTEROL: 86.67 mg/dL
  CREATINE PHOSPHOKINASE: 941 u/L
  CREATININE: 0.15 mg/dL
  GLUCOSE: 135 mg/dL
  LACTATE DEHYDROGENASE: 452.33 u/L
  LIPASE: 12.33 u/L
  PHOSPHORUS: 12.5 mg/dL
  POTASSIUM: 5.63 MEQ/L
  SODIUM: 141.87 MEQ/L
  TOTAL BILIRUBIN: 0.2 mg/dL
  TOTAL PROTEIN: 5.4 G/DL
  URIC ACID: 1.1 mg/dL

## CC(=O)CCCCn1c(=O)c2c(ncn2C)n(C)c1=O [PENTOXIFYLLINE]
[3]
  ABSOLUTE BASOPHIL: 0 CELLS/uL
  ABSOLUTE EOSINOPHIL: 54.67 CELLS/uL
  ABSOLUTE LYMPHOCYTE: 16028 CELLS/uL
  ABSOLUTE MONOCYTE: 106.67 CELLS/uL
  ABSOLUTE SEGMENTED NEUTROPHIL: 1677.33 CELLS/uL
  BASOPHIL: 0%
  EOSINOPHIL: 0.33%
  ERYTHROCYTE COUNT: 4.93 x10E6/uL
  HEMATOCRIT: 32.23%
  HEMOGLOBIN: 12.6 G/DL
  LEUKOCYTE COUNT: 17.87 x10E3/uL
  LYMPHOCYTE: 89.67%
  MEAN CORPUSCULAR HEMOGLOBIN: 25.6 pg
  MEAN CORPUSCULAR HEMOGLOBIN CONCENTRATION: 39.1 G/DL
  MEAN CORPUSCULAR VOLUME: 65.47 fL
  MONOCYTE: 0.67%
  NEUTROPHIL: 9.33%
  NUCLEATED RED BLOOD CELLS: 0.33 /100WBC
  PLATELET COUNT: 1350 x10E3/uL
  ALANINE AMINOTRANSFERASE: 62.33 u/L
  ALBUMIN: 4.27 G/DL
  ALKALINE PHOSPHATASE: 546.33 u/L
  ASPARTATE AMINOTRANSFERASE: 100.33 u/L
  BLOOD UREA NITROGEN: 17.33 mg/dL
  CARBON DIOXIDE: 24.67 mmol/L
  CHLORIDE: 107.67 MEQ/L
  CHOLESTEROL: 71 mg/dL
  CREATINE PHOSPHOKINASE: 318.67 u/L
  CREATININE: 0.21 mg/dL
  GLUCOSE: 160.67 mg/dL
  LACTATE DEHYDROGENASE: 438.67 u/L
  LIPASE: 10 u/L
  PHOSPHORUS: 13.7 mg/dL
  POTASSIUM: 6.67 MEQ/L
  SODIUM: 149.33 MEQ/L
  TOTAL BILIRUBIN: 0.2 mg/dL
  TOTAL PROTEIN: 5.87 G/DL
  URIC ACID: 1.47 mg/dL
[4]
  ABSOLUTE BASOPHIL: 0 CELLS/uL
  ABSOLUTE EOSINOPHIL: 0 CELLS/uL
  ABSOLUTE LYMPHOCYTE: 10793.33 CELLS/uL
  ABSOLUTE MONOCYTE: 47.67 CELLS/uL
  ABSOLUTE SEGMENTED NEUTROPHIL: 492.33 CELLS/uL
  BASOPHIL: 0%
  EOSINOPHIL: 0%
  ERYTHROCYTE COUNT: 5.84 x10E6/uL
  HEMATOCRIT: 36.73%
  HEMOGLOBIN: 13.57 G/DL
  LEUKOCYTE COUNT: 11.33 x10E3/uL
  LYMPHOCYTE: 95.33%
  MEAN CORPUSCULAR HEMOGLOBIN: 23.23 pg
  MEAN CORPUSCULAR HEMOGLOBIN CONCENTRATION: 36.97 G/DL
  MEAN CORPUSCULAR VOLUME: 62.93 fL
  MONOCYTE: 0.33%
  NEUTROPHIL: 4.33%
  NUCLEATED RED BLOOD CELLS: 0.33 /100WBC
  PLATELET COUNT: 1319.67 x10E3/uL
  ALANINE AMINOTRANSFERASE: 45 u/L
  ALBUMIN: 4.5 G/DL
  ALKALINE PHOSPHATASE: 368 u/L
  ASPARTATE AMINOTRANSFERASE: 79.67 u/L
  BLOOD UREA NITROGEN: 18.33 mg/dL
  CARBON DIOXIDE: 23 mmol/L
  CHLORIDE: 105.33 MEQ/L
  CHOLESTEROL: 65 mg/dL
  CREATINE PHOSPHOKINASE: 458.33 u/L
  CREATININE: 0.21 mg/dL
  GLUCOSE: 166 mg/dL
  LACTATE DEHYDROGENASE: 154.67 u/L
  LIPASE: 10.33 u/L
  PHOSPHORUS: 13.7 mg/dL
  POTASSIUM: 7.08 MEQ/L
  SODIUM: 148.67 MEQ/L
  TOTAL BILIRUBIN: 0.2 mg/dL
  TOTAL PROTEIN: 6.43 G/DL
  URIC ACID: 2.37 mg/dL

Reference: ChEMBL document CHEMBL3885881, “DrugMatrix”
